Source: patent US20230339900A1, “CASEIN KINASE 1 DELTA MODULATORS” (Janssen Pharmaceutica NV, priority 2020, published 2023)
Like-named read-outs stand apart in the source and are kept apart here.

Columns and labels:
[1] = target: human CSNK1D tagged with nanoluciferase (Homo sapiens (Human), UniProt P48730); assay: Whole Cell nBRET CSNK1D Binding Assay; conditions: living CHO cells stably expressing human CSNK1D-nanoluciferase; NanoBret tracer 130 nM; 2 hours 37° C.; read-out: CSNK1D BRET IC50
In short: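 IC50 values come from milliBRET ratios ((E630/E450)*1000) fitted against log compound concentration. Tracer displacement was run in living CHO cells stably expressing NanoLuc-fused CSNK1D, with dosed compounds and 130 nM tracer incubated 2 h at 37 °C in serum-free OptiMEM before substrate addition and donor/acceptor reading.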

[2] = target: human recombinant GST cleaved CSNK1D (Homo sapiens (Human), UniProt P48730); assay: Purified enzyme assay (ADP-Glo Kinase Assay); format: biochemical; conditions: 2 nM CSNK1D, peptide substrate 150 μM, ATP 20 μM, 45 minutes room temperature
circadian rhythms [3] = conditions: cellular reporter assays; cited from earlier work
[4] = conditioned place preference with cocaine and alcohol reinstatement; cited from earlier work
circadian rhythms [5] = conditions: in vivo locomotor activity of a variety of species; cited from earlier work
[6] = ob/ob and diet-induced obese mouse, daily administration; cited from earlier work

Sequence of human recombinant GST cleaved CSNK1D (P48730 whole entry): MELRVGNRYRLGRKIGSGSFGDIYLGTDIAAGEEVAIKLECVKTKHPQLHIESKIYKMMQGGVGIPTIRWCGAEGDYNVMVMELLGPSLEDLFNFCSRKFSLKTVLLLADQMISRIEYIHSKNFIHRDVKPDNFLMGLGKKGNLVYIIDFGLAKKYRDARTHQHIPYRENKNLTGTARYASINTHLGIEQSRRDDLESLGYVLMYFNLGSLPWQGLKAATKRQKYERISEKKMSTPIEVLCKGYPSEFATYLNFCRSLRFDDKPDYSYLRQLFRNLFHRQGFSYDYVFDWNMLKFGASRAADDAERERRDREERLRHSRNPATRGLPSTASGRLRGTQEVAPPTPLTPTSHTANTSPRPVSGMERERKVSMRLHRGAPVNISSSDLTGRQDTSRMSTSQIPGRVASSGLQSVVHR
Sequence of human CSNK1D tagged with nanoluciferase (P48730 whole entry, the tested form may be a part): as the sequence (P48730 whole entry) above

Structure (SMILES) | IC50 [1] [nM] | AC50 [2] [nM] | other results
Cc1csc2c(-c3cn(C)nc3-c3ccc(F)cn3)ccnc12 [Example 132, 7-[3-(5-Fluoro-2-pyridyl)-1-methyl-pyrazol-4-yl]-3-methyl-thieno[3,2-b]pyridine] | 5170 | 361 | –
Cc1ccnc2c(-c3cn(C)nc3-c3ccc(F)cn3)ccnc12 [Example 133, 4-[3-(5-Fluoro-2-pyridyl)-1-methyl-pyrazol-4-yl]-8-methyl-1,5-naphthyridine] | > 10000 | 7030 | –
Cc1cc(-c2nn(C)cc2-c2cc(C)nc3[nH]ncc23)ccn1 [Example 135, 6-Methyl-4-[1-methyl-3-(2-methyl-4-pyridyl)pyrazol-4-yl]-1H-pyrazolo[3,4-b]pyridine] | 7120 | 168 | –
Cc1cc(-c2cn(C)nc2-c2ccncc2C)c2cn[nH]c2n1 [Example 136, 6-Methyl-4-[1-methyl-3-(3-methyl-4-pyridyl)pyrazol-4-yl]-1H-pyrazolo[3,4-b]pyridine] | > 10000 | 1040 | –
Cc1cncc(-c2nn(C)cc2-c2cc(C)nc3[nH]ncc23)c1 [Example 137, 6-Methyl-4-[1-methyl-3-(5-methyl-3-pyridyl)pyrazol-4-yl]-1H-pyrazolo[3,4-b]pyridine] | 890 | 38 | –
Cc1cc(-c2cn(C)nc2-c2ccncc2Cl)c2cn[nH]c2n1 [Example 138, 4-[3-(3-Chloro-4-pyridyl)-1-methyl-pyrazol-4-yl]-6-methyl-1H-pyrazolo[3,4-b]pyridine] | 8620 | 217 | –
Cc1cc(-c2cn(C)nc2-c2c(C)cncc2F)c2cn[nH]c2n1 [Example 140, 4-[3-(3-Fluoro-5-methyl-4-pyridyl)-1-methyl-pyrazol-4-yl]-6-methyl-1H-pyrazolo[3,4-b]pyridine] | > 10000 | 1170 | –
COc1ncc(-c2nn(C)cc2-c2cc(C)nc3[nH]ncc23)cc1C [Example 141, 4-[3-(6-Methoxy-5-methyl-3-pyridyl)-1-methyl-pyrazol-4-yl]-6-methyl-1H-pyrazolo[3,4-b]pyridine] | 2020 | 44 | –
Cc1cc(-c2nn(C)cc2-c2cc(C)nc3[nH]ncc23)cnn1 [Example 143, 6-Methyl-4-[1-methyl-3-(6-methylpyridazin-4-yl)pyrazol-4-yl]-1H-pyrazolo[3,4-b]pyridine] | > 10000 | 1540 | –
Cn1cc(-c2ccnc3c2ccn3C)c(-c2ccc(F)cn2)n1 [Example 144, 4-[3-(5-Fluoro-2-pyridyl)-1-methyl-pyrazol-4-yl]-1-methyl-pyrrolo[2,3-b]pyridine] | 1720 | 77 | –
Cn1cc(-c2cc(C(F)F)nc3[nH]ncc23)c(-c2cncc(F)c2)n1 [Example 146, 6-(Difluoromethyl)-4-[3-(5-fluoro-3-pyridyl)-1-methyl-pyrazol-4-yl]-1H-pyrazolo[3,4-b]pyridine] | 6570 | 171 | –
Cn1cc(-c2ccnc3c(F)cccc23)c(-c2ccc(F)cn2)n1 [Example 147, 8-Fluoro-4-[3-(5-fluoro-2-pyridyl)-1-methyl-pyrazol-4-yl]quinoline] | > 10000 | 1100 | –
COc1cccc2c(-c3cn(C)nc3-c3ccc(F)cn3)ccnc12 [Example 148, 4-[3-(5-Fluoro-2-pyridyl)-1-methyl-pyrazol-4-yl]-8-methoxy-quinoline] | > 10000 | 7090 | –
Cn1cc(-c2ccnc3cc(C#N)ccc23)c(-c2ccc(F)cn2)n1 [Example 149, 4-[3-(5-Fluoro-2-pyridyl)-1-methyl-pyrazol-4-yl]quinoline-7-carbonitrile] | > 10000 | 124 | –
Cn1cc(-c2ccnc3ccc(C#N)cc23)c(-c2ccc(F)cn2)n1 [Example 150, 4-[3-(5-Fluoro-2-pyridyl)-1-methyl-pyrazol-4-yl]quinoline-6-carbonitrile] | 1820 | 113 | –
Nc1nccc(-c2c(-c3ccc(F)cc3)ncn2C2CCCCC2)n1 [PF-670462] | – | – | effect on circadian rhythms (circadian rhythms [3]): significantly lengthened circadian rhythms; efficacy in addiction/substance abuse models [4]: have shown efficacy; effect on circadian rhythms (circadian rhythms [5]): significantly lengthened circadian rhythms
Nc1nccc(-c2c(-c3ccc(F)cc3)ncn2C2CCN(Cc3ccon3)CC2)n1 [PF-5006739] | – | – | effect on circadian rhythms (circadian rhythms [3]): significantly lengthened circadian rhythms; effect on glucose tolerance [6]: improve glucose tolerance; effect on circadian rhythms (circadian rhythms [5]): significantly lengthened circadian rhythms

The remaining molecules from weak to strong by IC50 [1], led by results:

IC50 [1] [nM] | AC50 [2] [nM] | Structure (SMILES) | other results
803 | 52 | COc1ccc2ncc(F)c(-c3cn(C)nc3-c3ccc(F)cn3)c2n1 [Example 156, 7-Fluoro-8-[3-(5-fluoro-2-pyridyl)-1-methyl-pyrazol-4-yl]-2-methoxy-1,5-naphthyridine] | –
778 | 40 | Cn1cc(-c2ccnc3sccc23)c(-c2ccc(F)cn2)n1 [Example 145, 4-[3-(5-Fluoro-2-pyridyl)-1-methyl-pyrazol-4-yl]thieno[2,3-b]pyridine] | –
579 | 39 | Cn1cc(-c2ccnc3cc(Br)cnc23)c(-c2ccc(F)cn2)n1 [Example 153, 3-Bromo-8-[3-(5-fluoro-2-pyridyl)-1-methyl-pyrazol-4-yl]-1,5-naphthyridine] | –
578 | 73 | Cn1cc(-c2ccnc3cc(F)cnc23)c(-c2ccc(F)cn2)n1 [Example 152, 3-Fluoro-8-[3-(5-fluoro-2-pyridyl)-1-methyl-pyrazol-4-yl]-1,5-naphthyridine] | –
522 | 25 | COc1cc2nccc(-c3cn(C)nc3-c3ccc(F)cn3)c2cn1 [Example 154, 4-[3-(5-Fluoro-2-pyridyl)-1-methyl-pyrazol-4-yl]-7-methoxy-1,6-naphthyridine] | –
506 | 18 | Cc1cc(-c2cn(C)nc2-c2cncc(Cl)c2)c2cn[nH]c2n1 [Example 139, 4-[3-(5-Chloro-3-pyridyl)-1-methyl-pyrazol-4-yl]-6-methyl-1H-pyrazolo[3,4-b]pyridine] | –
453 | 38 | COc1cc(OC)c2c(-c3cn(C)nc3-c3ccc(F)cn3)ccnc2c1 [Example 151, 4-[3-(5-Fluoro-2-pyridyl)-1-methyl-pyrazol-4-yl]-5,7-dimethoxy-quinoline] | –
382 | 28 | COc1ncc(-c2nn(C)cc2-c2cc(C)nc3[nH]ncc23)cc1Cl [Example 142, 4-[3-(5-Chloro-6-methoxy-3-pyridyl)-1-methyl-pyrazol-4-yl]-6-methyl-1H-pyrazolo[3,4-b]pyridine] | –
329 | 30 | Cc1cc(-c2cn(C3CC3)nc2-c2ccc(F)cn2)c2cn[nH]c2n1 [Example 134, 4-[1-Cyclopropyl-3-(5-fluoro-2-pyridyl)pyrazol-4-yl]-6-methyl-1H-pyrazolo[3,4-b]pyridine] | –
318 | 22 | COc1cnc2c(-c3cn(C)nc3-c3ccc(F)cn3)ccnc2c1 [Example 155, 8-[3-(5-Fluoro-2-pyridyl)-1-methyl-pyrazol-4-yl]-3-methoxy-1,5-naphthyridine] | –
